The test system of the experiment is B6C3F1 mice, ip Sarcoma M5076, median survival T/C. In words: NCI In Vivo Anticancer Drug Screen. Data for tumor model Sarcoma M5076 (intraperitoneal) in B6C3F1 mice. Conditions: endpoint: median survival time, higher = longer survival. Summed up:
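Transplantable tumour in mice; compound-treated vs vehicle-treated groups. Read-out: survival. Value = treated/control ratio.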

The mark [1] stands for this setting: dose: 100.0 mg/kg/injection, schedule: Q04DX004 (ip), vehicle: saline with Tween-80.
Where [2] appears, read: dose: 200.0 mg/kg/injection, schedule: Q04DX004 (ip), vehicle: saline with Tween-80.
Where [3] appears, read: dose: 400.0 mg/kg/injection, schedule: Q04DX004 (ip), vehicle: saline with Tween-80.
The mark [4] stands for this setting: dose: 50.0 mg/kg/injection, schedule: Q04DX004 (ip), vehicle: suspension in saline.
The mark [5] stands for this setting: dose: 100.0 mg/kg/injection, schedule: Q04DX004 (ip), vehicle: suspension in saline.
Setting [6] is: dose: 25.0 mg/kg/injection, schedule: Q04DX004 (ip), vehicle: Klucel (hydroxypropylcellulose) (HPC).
Setting [7] is: dose: 50.0 mg/kg/injection, schedule: Q04DX004 (ip), vehicle: Klucel (hydroxypropylcellulose) (HPC).
The mark [8] stands for this setting: dose: 100.0 mg/kg/injection, schedule: Q04DX004 (ip), vehicle: Klucel (hydroxypropylcellulose) (HPC).
The mark [9] stands for this setting: dose: 200.0 mg/kg/injection, schedule: Q04DX004 (ip), vehicle: Klucel (hydroxypropylcellulose) (HPC).
The mark [10] stands for this setting: dose: 400.0 mg/kg/injection, schedule: Q04DX004 (ip), vehicle: Klucel (hydroxypropylcellulose) (HPC).

Where “and” joins values, the source holds several entries; their conditions need not be identical. Equal values may be shown once. Inconclusive results and toxic doses are left out.

For `CCn1c2ccccc2c2cc(N)c(N=Nc3ccc(N(C)C)cc3)cc21`, the T/C was 111 % of control (dose: 32.82 mg/kg/injection, schedule: Q04DX004 (ip), vehicle: Klucel (hydroxypropylcellulose) (HPC)); 93 % of control (dose: 65.63 mg/kg/injection, schedule: Q04DX004 (ip), vehicle: Klucel (hydroxypropylcellulose) (HPC)); 97 % of control (dose: 131.25 mg/kg/injection, schedule: Q04DX004 (ip), vehicle: Klucel (hydroxypropylcellulose) (HPC)); 93 % of control (dose: 262.5 mg/kg/injection, schedule: Q04DX004 (ip), vehicle: Klucel (hydroxypropylcellulose) (HPC)); 90 % of control (dose: 525.0 mg/kg/injection, schedule: Q04DX004 (ip), vehicle: Klucel (hydroxypropylcellulose) (HPC)).
Turning to `Nc1nncs1`, the T/C under setting [1] is 111 % of control; the T/C (dose: 100.0 mg/kg/injection, schedule: Q04DX005 (ip), vehicle: saline with Tween-80) is 112 % of control; the T/C (dose: 100.0 mg/kg/injection, schedule: Q04DX005 (ip), vehicle: saline) is 114 % of control and 116 % of control; the T/C under setting [2] was 112 % of control; the T/C (dose: 200.0 mg/kg/injection, schedule: Q04DX005 (ip), vehicle: saline with Tween-80) is 112 % of control; the T/C (dose: 200.0 mg/kg/injection, schedule: Q04DX005 (ip), vehicle: saline) was 109 % of control and 121 % of control. In addition, the T/C was 121 % of control under setting [3]; 95 % of control (dose: 400.0 mg/kg/injection, schedule: Q04DX005 (ip), vehicle: saline); 151 % of control (dose: 800.0 mg/kg/injection, schedule: Q04DX005 (ip), vehicle: saline).
For the compound `C=CC(=O)NCNC(=O)C=C`, the T/C is 99 % of control under setting [4] and 115 % of control under setting [5].
With `Oc1ccc(/C=N/Nc2nnc(N/N=C/c3ccc(O)cc3O)c3ccccc23)c(O)c1`, the T/C (dose: 6.25 mg/kg/injection, schedule: Q04DX004 (ip), vehicle: suspension in saline) is 108 % of control; the T/C (dose: 12.5 mg/kg/injection, schedule: Q04DX004 (ip), vehicle: suspension in saline) was 109 % of control; the T/C (dose: 25.0 mg/kg/injection, schedule: Q04DX004 (ip), vehicle: suspension in saline) is 109 % of control; the T/C under setting [4] is 109 % of control; the T/C under setting [5] was 119 % of control.
For the compound `CN1C=C/C(=C/[N+](=O)[O-])N(C)C1=O`, the T/C was 103 % of control under setting [6], 103 % of control under setting [7], 99 % of control under setting [8] and 103 % of control under setting [9].
On to `CCOC(=O)/C=C1/SC(N2CCCCC2)C(=O)N1CC` (configuration not stated), for which the T/C reads like this: under setting [7], 96 % of control; under setting [8], 96 % of control; under setting [9], 97 % of control; under setting [10], 94 % of control.
On to `NC(CCC(=O)NC(CS)C(=O)NCC(=O)O)C(=O)O` (configuration not stated), for which the T/C runs as follows: (dose: 75.0 mg/kg/injection, schedule: Q04DX004 (ip), vehicle: saline) 110 % of control; (dose: 150.0 mg/kg/injection, schedule: Q04DX004 (ip), vehicle: saline) 100 % of control; (dose: 300.0 mg/kg/injection, schedule: Q04DX004 (ip), vehicle: saline) 102 % of control; (dose: 600.0 mg/kg/injection, schedule: Q04DX004 (ip), vehicle: saline) 90 % of control; (dose: 1200.0 mg/kg/injection, schedule: Q04DX004 (ip), vehicle: saline) 90 % of control.
With `Cc1cc2c(C(C)C)c(O)c(O)c(C=NCCO)c2c(O)c1-c1c(C)cc2c(C(C)C)c(O)c(O)c(C=NCCO)c2c1O`, the T/C by setting is: (dose: 50.0 mg/kg/injection, schedule: Q04DX004 (ip), vehicle: saline with Tween-80) 116 % of control; (dose: 86.4 mg/kg/injection, schedule: Q04DX004 (ip), vehicle: saline with Tween-80) 120 % of control; under setting [1], 121 % of control; under setting [2], 123 % of control; (dose: 240.0 mg/kg/injection, schedule: Q04DX004 (ip), vehicle: saline with Tween-80) 150 % of control; under setting [3], 92 % of control and 210 % of control. Further, under “dose: 800.0 mg/kg/injection, schedule: Q04DX004 (ip), vehicle: saline with Tween-80”, the T/C is 180 % of control.
Consider `O=C1CN(CO)C(=O)N1CO`, for which the T/C by setting is: under setting [6], 100 % of control; under setting [7], 104 % of control; under setting [8], 97 % of control; under setting [9], 114 % of control; under setting [10], 114 % of control.
For the compound `Cc1c2ccccc2c(C)c2c1cc(C(=O)O)c1ccccc12`, the T/C was 113 % of control (dose: 12.5 mg/kg/injection, schedule: Q04DX004 (ip), vehicle: sodium bicarbonate); 113 % of control (dose: 25.0 mg/kg/injection, schedule: Q04DX004 (ip), vehicle: sodium bicarbonate); 113 % of control (dose: 50.0 mg/kg/injection, schedule: Q04DX004 (ip), vehicle: sodium bicarbonate); 124 % of control (dose: 200.0 mg/kg/injection, schedule: Q04DX004 (ip), vehicle: sodium bicarbonate).
On to `CS(=O)CCN=Cc1ccc(N=Nc2ccc(O)cc2)cc1` (configuration not stated), for which the T/C (dose: 37.0 mg/kg/injection, schedule: Q04DX004 (ip), vehicle: saline with Tween-80) is 109 % of control; the T/C (dose: 75.0 mg/kg/injection, schedule: Q04DX004 (ip), vehicle: saline with Tween-80) is 90 % of control; the T/C (dose: 150.0 mg/kg/injection, schedule: Q04DX004 (ip), vehicle: saline with Tween-80) was 87 % of control; the T/C (dose: 600.0 mg/kg/injection, schedule: Q04DX004 (ip), vehicle: saline with Tween-80) is 87 % of control.
In the case of `CCc1ccccc1N1CCN(C(=O)c2cc(OC)c(OC)c(OC)c2)CC1`, the T/C under setting [6] is 111 % of control, the T/C under setting [7] was 112 % of control and the T/C under setting [8] was 122 % of control.

The values are drawn from PubChem BioAssay AID292 (DTP/NCI, 2004).
